# Values of other authors, collected in patent publication US6863905B1, “Enhanced iodine treatment of drinking water” (Shanbrom Technologies, LLC, priority 2002, dated 2005).
# Conditions: at 20° C.
compound,measurement,value
II [iodine],solubility in water,300 µg/mL
